Measurements taken from patent US12643858B2 (Inipharm, Inc., priority 2020, dated 2026).

Each compound was assayed against T1, HSD17B13 enzyme (Homo sapiens, UniProt Q7Z5P4) (assay: NADH detection assay (fluorescence based LTB3 assay) for HSD17B13 activity). Conditions: substrate 25 μM LTB3, 3 mM NAD+, 125 nM HSD17B13 enzyme, 1 hour at 26.5° C.
T1 construct: His; made in house; host or cells: E. coli
T1 sequence (Q7Z5P4 20-300): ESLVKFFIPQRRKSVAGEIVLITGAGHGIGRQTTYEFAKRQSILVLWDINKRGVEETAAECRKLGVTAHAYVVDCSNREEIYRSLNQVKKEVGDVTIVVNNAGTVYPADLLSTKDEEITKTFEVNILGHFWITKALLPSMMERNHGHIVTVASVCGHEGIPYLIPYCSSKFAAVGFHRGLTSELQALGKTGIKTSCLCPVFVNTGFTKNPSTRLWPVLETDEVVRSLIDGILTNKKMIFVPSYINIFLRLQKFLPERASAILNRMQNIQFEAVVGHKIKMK
Format: biochemical
Description: Example A: NADH Detection Assay for Evaluation of HSD17ß13 Activity and Identification of Inhibitors
The fluorescence based Leukotriene B3 (LTB3) assay monitors the fluorescence of NADH, which is generated from NAD+ during the dehydrogenation of the substrate LTB3. The reactions were performed in a 384-well plates (Greiner; #655076) in a 20 μl reaction volume containing the following reagents (final concentrations): 25 μM LTB3 (Cayman; #20109); 3 mM NAD+ (Sigma; #N0623); 125 nM HSD17B13 enzyme (in-house; E. coli expressed His-tagged, purified, soluble protein); […] potassium phosphate buffer, pH 7.4; and 1% DMSO. Reactions were initiated by co-addition of NAD+ and enzyme, and monitored for 1 hour at 26.5° C. Generation of NADH was measured as the fluorescence signal (Excitation at 340 nm and Emission at 445 nm) at 1 hour minus the baseline fluorescence at t=0. Fluorescence signals in the absence of LTB3 (negative control values), were subtracted from all values so that the results reflected substrate-dependent production of NADH. NADH standards were included to allow the conversion of relative fluorescence units into rates of enzyme activity. Enzyme activity in the presence of test compounds was expressed as a percentage of the uninhibited enzyme activity, and plotted versus inhibitor concentration. Non-linear regression was performed using a four-parameter logistic model and GraphPad Prism software (GraphPad Software, La Jolla, CA). Ten concentrations of inhibitor were tested (in the range of 30 μM-2.5 nM), and two independent assessments were performed at each concentration.

| Compound | IC50 [µM] |
| --- | --- |
| N#Cc1ccc(Oc2ccc(F)c(O)c2)nc1N1CCOCC1 [Example 62, 6-(4-fluoro-3-hydroxyphenoxy)-2-(morpholin-4-yl)pyridine-3-carbonitrile] | > 30 |
| O=C(NC1CC1)c1cccc(-c2cccc(Oc3ccc(F)c(O)c3)n2)c1 [Example 63, N-cyclopropyl-3-(6-(4-fluoro-3-hydroxyphenoxy)pyridin-2-yl)benzamide] | 10 to 30 |
| Oc1cc(Oc2cccc(-c3ccc(OC(F)(F)F)c(Cl)c3)n2)ccc1F [Example 66, 5-((6-(3-chloro-4-(trifluoromethoxy)phenyl)pyridin-2-yl)oxy)-2-fluorophenol] | ≤ 5 |
| Oc1cc(Oc2cccc(-c3ccc4c(c3)OCO4)n2)ccc1F [Example 67, 5-((6-(benzo[d][1,3]dioxol-5-yl)pyridin-2-yl)oxy)-2-fluorophenol] | ≤ 5 |
| O=C(O)c1cccc(-c2cccc(Oc3ccc(F)c(O)c3)n2)c1 [Example 68, 3-(6-(4-fluoro-3-hydroxyphenoxy)pyridin-2-yl)benzoic acid] | > 30 |
| CNC(=O)c1cc(Oc2ccc(F)c(O)c2)nc(-c2cccc(O)c2F)c1 [Example 69, 2-(4-fluoro-3-hydroxyphenoxy)-6-(2-fluoro-3-hydroxyphenyl)-N-methylpyridine-4-carboxamide] | 10 to 30 |
| CNC(=O)c1cc(Oc2ccc(F)c(OC)c2)nc(-c2cccc(O)c2F)c1 [Example 70, 2-(2-fluoro-3-hydroxyphenyl)-6-(4-fluoro-3-methoxyphenoxy)-N-methylpyridine-4-carboxamide] | > 30 |
| Oc1cc(Oc2cccc(N3CCOCC3)n2)ccc1F [Example 72, 2-fluoro-5-{[6-(morpholin-4-yl)pyridin-2-yl]oxy}phenol] | > 30 |
| O=c1ccc(-c2cccc(Oc3ccc(F)c(O)c3)n2)cn1C(F)F [Example 73, 1′-(difluoromethyl)-6-(4-fluoro-3-hydroxyphenoxy)-[2,3′-bipyridin]-6′(1′H)-one] | > 30 |
| COc1cccc(F)c1-c1cccc(Oc2ccc(F)c(O)c2)n1 [Example 74, 2-fluoro-5-((6-(2-fluoro-6-methoxyphenyl)pyridin-2-yl)oxy)phenol] | > 30 |
| CS(=O)(=O)c1cccc(-c2cccc(Oc3ccc(F)c(O)c3)n2)c1 [Example 75, 2-fluoro-5-((6-(3-(methylsulfonyl)phenyl)pyridin-2-yl)oxy)phenol] | > 30 |
| NS(=O)(=O)c1ccc(-c2cccc(Oc3ccc(F)c(O)c3)n2)cc1 [Example 76, 4-(6-(4-fluoro-3-hydroxyphenoxy)pyridin-2-yl)benzene sulfonamide] | 10 to 30 |
| CS(=O)(=O)c1ccc(-c2cccc(Oc3ccc(F)c(O)c3)n2)cc1 [Example 77, 2-fluoro-5-((6-(4-(methylsulfonyl)phenyl)pyridin-2-yl)oxy)phenol] | 10 to 30 |
| Oc1cc(Oc2cccc(-c3c(F)cccc3F)n2)ccc1F [Example 78, 5-((6-(2,6-difluorophenyl)pyridin-2-yl)oxy)-2-fluorophenol] | 5 to 10 |
| CC(=O)Nc1cccc(-c2cccc(Oc3ccc(F)c(O)c3)n2)c1 [Example 79, N-(3-(6-(4-fluoro-3-hydroxyphenoxy)pyridin-2-yl)phenyl)acetamide] | ≤ 5 |
| CNC(=O)c1ccc(-c2cccc(Oc3ccc(F)c(O)c3)n2)cc1 [Example 80, 4-(6-(4-fluoro-3-hydroxyphenoxy)pyridin-2-yl)-N-methylbenzamide] | ≤ 5 |
| CNC(=O)c1cccc(-c2cccc(Oc3ccc(F)c(O)c3)n2)c1 [Example 81, 3-(6-(4-fluoro-3-hydroxyphenoxy)pyridin-2-yl)-N-methylbenzamide] | ≤ 5 |
| Oc1cc(Oc2cccc(-c3ccc(Cl)cc3)n2)ccc1F [Example 82, 5-{[6-(4-chlorophenyl)pyridin-2-yl]oxy}-2-fluorophenol] | ≤ 5 |
| Oc1cc(Oc2cccc(-c3ccccc3Cl)n2)ccc1F [Example 83, 5-{[6-(2-chlorophenyl)pyridin-2-yl]oxy}-2-fluorophenol] | ≤ 5 |
| Oc1cc(Oc2cccc(-c3ccc(F)cc3F)n2)ccc1F [Example 84, 5-{[6-(2,4-difluorophenyl)pyridin-2-yl]oxy}-2-fluorophenol] | 5 to 10 |
| Oc1cc(Oc2cccc(-c3ccc(F)c(Cl)c3)n2)ccc1F [Example 85, 5-{[6-(3-chloro-4-fluorophenyl)pyridin-2-yl]oxy}-2-fluorophenol] | 5 to 10 |

| Compound | IC50 [µM] |
| --- | --- |
| Oc1cc(Oc2cccc(-c3cccc(Cl)c3F)n2)ccc1F [Example 86, 5-{[6-(3-chloro-2-fluorophenyl)pyridin-2-yl]oxy}-2-fluorophenol] | ≤ 5 |
| COc1ccc(-c2cccc(Oc3ccc(F)c(O)c3)n2)c(F)c1 [Example 87, 2-fluoro-5-{[6-(2-fluoro-4-methoxyphenyl)pyridin-2-yl]oxy}phenol] | ≤ 5 |
| Oc1cc(Oc2cccc(-c3cc(F)ccc3F)n2)ccc1F [Example 88, 5-{[6-(2,5-difluorophenyl)pyridin-2-yl]oxy}-2-fluorophenol] | ≤ 5 |
| Oc1cc(Oc2cccc(-c3cc(F)cc(F)c3)n2)ccc1F [Example 89, 5-{[6-(3,5-difluorophenyl)pyridin-2-yl]oxy}-2-fluorophenol] | ≤ 5 |
| Oc1cc(Oc2cccc(-c3ccccc3F)n2)ccc1F [Example 90, 2-fluoro-5-((6-(2-fluorophenyl)pyridin-2-yl)oxy)phenol] | ≤ 5 |
| N#Cc1ccc(-c2cccc(Oc3ccc(F)c(O)c3)n2)c(F)c1 [Example 92, 3-fluoro-4-(6-(4-fluoro-3-hydroxyphenoxy)pyridin-2-yl)benzonitrile] | > 30 |
| O=S(=O)(Nc1cccc(Oc2cccc(-c3cccc(O)c3F)n2)c1)C1CC1 [Example 93, N-(3-{[6-(2-fluoro-3-hydroxyphenyl)pyridin-2-yl]oxy}phenyl)cyclopropane-sulfonamide] | > 30 |
| CS(=O)(=O)NCc1cccc(Oc2cccc(-c3cccc(O)c3F)n2)c1 [Example 94, N-[(3-{[6-(2-fluoro-3-hydroxyphenyl)pyridin-2-yl]oxy}phenyl)methyl]methane-sulfonamide] | > 30 |
| COc1cccc(-c2cccc(Oc3cccc(NS(=O)(=O)C4CC4)c3)n2)c1F [Example 95, N-(3-{[6-(2-fluoro-3-methoxyphenyl)pyridin-2-yl]oxy}phenyl)cyclopropane-sulfonamide] | > 30 |
| COc1cccc(-c2cccc(Oc3cccc(CNS(C)(=O)=O)c3)n2)c1F [Example 96, N-[(3-{[6-(2-fluoro-3-methoxyphenyl)pyridin-2-yl]oxy}phenyl)methyl]methane-sulfonamide] | > 30 |
| Oc1cccc(-c2cccc(Oc3ccc(F)c(O)c3)n2)c1 [Example 97, 2-fluoro-5-{[6-(3-hydroxyphenyl)pyridin-2-yl]oxy}phenol] | 10 to 30 |
| Oc1cc(Oc2cccc(-c3ccc(C(F)(F)F)cc3)n2)ccc1F [Example 98, 2-fluoro-5-((6-(4-(trifluoromethyl)phenyl)pyridin-2-yl)oxy)phenol] | 10 to 30 |
| COc1ccccc1-c1cccc(Oc2ccc(F)c(O)c2)n1 [Example 99, 2-fluoro-5-((6-(2-methoxyphenyl)pyridin-2-yl)oxy)phenol] | 10 to 30 |
| Oc1cc(Oc2cccc(-c3ccc(C(F)(F)F)c(Cl)c3)n2)ccc1F [Example 100, 5-((6-(3-chloro-4-(trifluoromethyl)phenyl)pyridin-2-yl)oxy)-2-fluorophenol] | 10 to 30 |
| Oc1cc(Oc2cccc(-c3ccc(Cl)c(C(F)(F)F)c3)n2)ccc1F [Example 101, 5-((6-(4-chloro-3-(trifluoromethyl)phenyl)pyridin-2-yl)oxy)-2-fluorophenol] | 10 to 30 |
| COc1ccc(-c2cccc(Oc3ccc(F)c(O)c3)n2)cc1 [Example 102, 2-fluoro-5-((6-(4-methoxyphenyl)pyridin-2-yl)oxy)phenol] | 10 to 30 |
| Oc1cc(Oc2cccc(-c3cccc(C(F)(F)F)c3)n2)ccc1F [Example 103, 2-fluoro-5-((6-(3-(trifluoromethyl)phenyl)pyridin-2-yl)oxy)phenol] | 5 to 10 |
| N#Cc1cccc(-c2cccc(Oc3ccc(F)c(O)c3)n2)c1 [Example 104, 3-(6-(4-fluoro-3-hydroxyphenoxy)pyridin-2-yl)benzonitrile] | 10 to 30 |
| COc1cccc(-c2cccc(Oc3ccc4cn[nH]c4c3)n2)c1F [Example 105, 6-{[6-(2-fluoro-3-methoxyphenyl)pyridin-2-yl]oxy}-1H-indazole] | > 30 |
| CC(=O)Nc1cc(Oc2cccc(-c3cccc(O)c3F)n2)ccc1F [Example 106, N-(2-fluoro-5-{[6-(2-fluoro-3-hydroxyphenyl)pyridin-2-yl]oxy}phenyl)acetamide] | > 30 |
